Measurements published in patent US20250297036A1, “METHOD FOR CO[…]-DERIVED PEPTIDE-NUCLEIC ACID HYBRID MOLECULES ON BASIS OF IN VITRO SELECTION” (priority 2022, published 2025).

B1: LGKGDFR peptide (hACE2-derived hotspot peptide, not conjugated to DNA) (peptide)
peptide: LGKGDFRK
modifications: not checked

Key:
pseudotype SARS-CoV-2 = assay type: cell-based
SARS-CoV-2 RBD = SARS-CoV-2 RBD (Severe acute respiratory syndrome coronavirus 2, UniProt P0DTC2)
[1] = molecular target: SARS-CoV-2 RBD, wild type (SARS-CoV-2), P0DTC2
[2] = molecular target: SARS-CoV-2 spike protein on GFP-reporting pseudotype SARS-CoV-2 (SARS-CoV-2), P0DTC2; assay: cell-based or functional assay

Row | Molecule | infection rate with pseudotype SARS-CoV-2 (percentage of infected cells) (pseudotype SARS-CoV-2) [%] | competition with P05DHu and AM122 antibodies (SARS-CoV-2 RBD) | % inhibition of RBD-hACE2 interaction [1] [%] | infection rate with pseudotype SARS-CoV-2 (GFP-expressing hACE2-293T cells) [2] [%]
1 | LGKGDFR [LGKGDFR peptide] | 12.6 | – | – | –
2 | R7-02 (GGAAGAGATGGCGACACGCAATCGTGGGTTGGGGATATAATGGTAAGCTGATCCTGATGG; 5' hexynyl group, further chemistry not given here) | 1.9 | insignificant | – | –
3 | B1 | – | – | 11.7 | 12.6
